Test results as given in PubChem BioAssay (NCI).
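Where inhibition never reached the appropriate level, the endpoint shown equals the highest concentration tested. Otherwise, values were interpolated linearly from a five-concentration, 48-hour dose response in 96-well plates. At the GI50, growth is halved. At the TGI there is no net growth.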

How the values were obtained:
Assay in all cases: NCI tumour cell line growth inhibition, 48 h
[1] = test system: HOP-62 NSCLC
[2] = test system: DU-145 prostate
[3] = test system: IGROV1 ovarian
[4] = test system: OVCAR-3 ovarian
[5] = test system: MDA-MB-435
[6] = test system: OVCAR-5 ovarian
[7] = test system: HS 578T breast
[8] = test system: NCI/ADR-RES ovarian
[9] = test system: UACC-257 melanoma
[10] = test system: EKVX NSCLC
[11] = test system: MCF7 breast
[12] = test system: COLO 205 colon
[13] = test system: HCT-15 colon
[14] = test system: NCI-H226 lung
[15] = test system: HOP-92 NSCLC
[16] = test system: RPMI-8226 leukemia
[17] = test system: HL-60(TB) leukemia
[18] = test system: A549 NSCLC
[19] = test system: NCI-H23 lung
[20] = test system: SR leukemia
[21] = test system: SNB-19 CNS
[22] = test system: SNB-75 CNS
[23] = test system: OVCAR-4 ovarian
[24] = test system: 786-0 renal
[25] = test system: SN12C renal
[26] = test system: UACC-62 melanoma
[27] = test system: T-47D breast
[28] = test system: A498 renal
[29] = test system: PC-3 prostate
[30] = test system: SK-MEL-28 melanoma
[31] = test system: SW-620 colon
[32] = test system: TK-10 renal
[33] = test system: SF-539 CNS
[34] = test system: OVCAR-8 ovarian
[35] = test system: SF-295 CNS
[36] = test system: NCI-H522 lung
[37] = test system: K-562 leukemia
[38] = test system: SK-MEL-2 melanoma
[39] = test system: SK-OV-3 ovarian
[40] = test system: RXF 393 renal
[41] = test system: HT29 colon
[42] = test system: M14 melanoma
[43] = test system: CAKI-1 renal
[44] = test system: NCI-H460 lung
[45] = test system: ACHN renal
[46] = test system: UO-31 renal
[47] = test system: BT-549 breast
[48] = test system: KM12 colon
[49] = test system: SK-MEL-5 melanoma
[50] = test system: SF-268 CNS
[51] = test system: HCT-116 colon
[52] = test system: LOX IMVI melanoma
[53] = test system: U251 CNS
[54] = test system: MOLT-4 leukemia
[55] = test system: CCRF-CEM leukemia
[56] = test system: MDA-MB-231 breast
[57] = test system: HCC-2998 colon
[58] = test system: MALME-3M melanoma

## COc1ccc2c(c1OC)CO[C@@H]2[C@H]1c2c(c(Br)c3c(c2OC)OCO3)CCN1C
[1]
  GI50: 5.88 µM
  TGI: 32.7 µM
[2]
  GI50: 6.96 µM
  TGI: > 100 µM
[3]
  GI50: 8.73 µM
  TGI: > 100 µM
[4]
  GI50: 3.91 µM
  TGI: 13.6 µM
[5]
  GI50: 3.07 µM
  TGI: 8.69 µM
[6]
  GI50: 18.6 µM
  TGI: > 100 µM
[7]
  GI50: 3.08 µM
  TGI: 12.7 µM
[8]
  GI50: 4.45 µM
  TGI: > 100 µM
[9]
  GI50: 4.28 µM
  TGI: 19.9 µM
[10]
  GI50: 3.95 µM
  TGI: 34.8 µM
[11]
  GI50: 3.19 µM
  TGI: 29.3 µM
[12]
  GI50: 31.4 µM
  TGI: 85.4 µM
[13]
  GI50: 2.69 µM
  TGI: > 100 µM
[14]
  GI50: 5.16 µM
  TGI: 32.3 µM
[15]
  GI50: 6.74 µM
  TGI: 57.6 µM
[16]
  GI50: 4.24 µM
  TGI: > 100 µM
[17]
  GI50: 1.89 µM
  TGI: > 100 µM
[18]
  GI50: 7.53 µM
  TGI: > 100 µM
[19]
  GI50: 4.1 µM
  TGI: 22 µM
[20]
  GI50: 1.01 µM
  TGI: > 100 µM
[21]
  GI50: 39.2 µM
  TGI: > 100 µM
[22]
  GI50: 40.2 µM
  TGI: > 100 µM
[23]
  GI50: > 100 µM
  TGI: > 100 µM
[24]
  GI50: 4.66 µM
  TGI: 19.3 µM
[25]
  GI50: 3.98 µM
  TGI: 16.8 µM
[26]
  GI50: 2.07 µM
  TGI: 9.2 µM
[27]
  GI50: 66.8 µM
  TGI: > 100 µM
[28]
  GI50: 2.27 µM
  TGI: 4.43 µM
[29]
  GI50: 8.74 µM
  TGI: > 100 µM
[30]
  GI50: 36.6 µM
  TGI: > 100 µM
[31]
  GI50: 3.57 µM
  TGI: > 100 µM
[32]
  GI50: 4.42 µM
  TGI: 21.6 µM
[33]
  GI50: 2.83 µM
  TGI: 9.3 µM
[34]
  GI50: 7.3 µM
  TGI: > 100 µM
[35]
  GI50: 2.84 µM
  TGI: 7.65 µM
[36]
  GI50: 3.41 µM
  TGI: 23.1 µM
[37]
  GI50: 2.37 µM
  TGI: > 100 µM
[38]
  GI50: 5.77 µM
  TGI: 43.7 µM
[39]
  GI50: 61.2 µM
  TGI: > 100 µM
[40]
  GI50: 4.9 µM
  TGI: 29.8 µM
[41]
  GI50: 30.7 µM
  TGI: > 100 µM
[42]
  GI50: 3.47 µM
  TGI: 9.74 µM
[43]
  GI50: 4.17 µM
  TGI: 22.1 µM
[44]
  GI50: 3.03 µM
  TGI: 14 µM
[45]
  GI50: 6.63 µM
  TGI: > 100 µM
[46]
  GI50: 10.6 µM
  TGI: > 100 µM
[47]
  GI50: 6.8 µM
  TGI: 35.9 µM
[48]
  GI50: 4.26 µM
  TGI: 23.8 µM
[49]
  GI50: 2.42 µM
  TGI: 11.8 µM
[50]
  GI50: 5.16 µM
  TGI: 25.5 µM
[51]
  GI50: 5.09 µM
  TGI: 22.6 µM
[52]
  GI50: 2.67 µM
  TGI: 12.2 µM
[53]
  GI50: 4.59 µM
  TGI: 70.6 µM
[54]
  GI50: 3.55 µM
  TGI: > 100 µM

## Nc1c(C(=O)Nc2ccccn2)sc2nc3c(cc12)CCCCC3
[1]
  GI50: 3.46 µM
  TGI: > 50 µM
[55]
  GI50: 1.91 µM
  TGI: > 50 µM
[56]
  GI50: 3.83 µM
  TGI: > 50 µM
[2]
  GI50: 1.88 µM
  TGI: > 50 µM
[3]
  GI50: 3.58 µM
  TGI: > 50 µM
[4]
  GI50: 1.63 µM
  TGI: > 50 µM
[5]
  GI50: 0.25 µM
  TGI: > 50 µM
[6]
  GI50: 3.8 µM
  TGI: > 50 µM
[7]
  GI50: 2.74 µM
  TGI: > 50 µM
[9]
  GI50: > 50 µM
  TGI: > 50 µM
[11]
  GI50: 0.851 µM
  TGI: > 50 µM
[12]
  GI50: 1.42 µM
  TGI: > 50 µM
[13]
  GI50: 1.38 µM
  TGI: > 50 µM
[14]
  GI50: 2.6 µM
  TGI: > 50 µM
[15]
  GI50: 27.9 µM
  TGI: > 50 µM
[16]
  GI50: 1.98 µM
  TGI: > 50 µM
[17]
  GI50: 1.34 µM
  TGI: > 50 µM
[18]
  GI50: 2.47 µM
  TGI: > 50 µM
[19]
  GI50: 2.19 µM
  TGI: > 50 µM
[20]
  GI50: 0.521 µM
  TGI: > 50 µM
[21]
  GI50: 2.77 µM
  TGI: > 50 µM
[22]
  GI50: 2.35 µM
  TGI: > 50 µM
[23]
  GI50: 4.09 µM
  TGI: > 50 µM
[24]
  GI50: 1.78 µM
  TGI: > 50 µM
[25]
  GI50: 3.59 µM
  TGI: > 50 µM
[26]
  GI50: 3.06 µM
  TGI: > 50 µM
[27]
  GI50: 1.79 µM
  TGI: > 50 µM
[29]
  GI50: 2.59 µM
  TGI: > 50 µM
[30]
  GI50: 6.23 µM
  TGI: > 50 µM
[31]
  GI50: 3.19 µM
  TGI: > 50 µM
[32]
  GI50: 4.98 µM
  TGI: > 50 µM
[33]
  GI50: 1.39 µM
  TGI: > 50 µM
[57]
  GI50: 2.37 µM
  TGI: > 50 µM
[34]
  GI50: 2.87 µM
  TGI: > 50 µM
[35]
  GI50: 1.56 µM
  TGI: > 50 µM
[36]
  GI50: 2.11 µM
  TGI: > 50 µM
[58]
  GI50: 34.3 µM
  TGI: > 50 µM
[37]
  GI50: 0.987 µM
  TGI: > 50 µM
[38]
  GI50: 2.08 µM
  TGI: > 50 µM
[39]
  GI50: 2.14 µM
  TGI: > 50 µM
[40]
  GI50: 1.4 µM
  TGI: 4.86 µM
[41]
  GI50: 1.75 µM
  TGI: > 50 µM
[42]
  GI50: 1.26 µM
  TGI: > 50 µM
[43]
  GI50: 3.51 µM
  TGI: > 50 µM
[44]
  GI50: 1.83 µM
  TGI: > 50 µM
[45]
  GI50: 2.71 µM
  TGI: > 50 µM
[47]
  GI50: 2.36 µM
  TGI: > 50 µM
[48]
  GI50: 1.95 µM
  TGI: > 50 µM
[49]
  GI50: 2.13 µM
  TGI: > 50 µM
[50]
  GI50: 4.89 µM
  TGI: > 50 µM
[51]
  GI50: 1.77 µM
  TGI: > 50 µM
[52]
  GI50: 9.56 µM
  TGI: > 50 µM
[53]
  GI50: 2.64 µM
  TGI: > 50 µM
[54]
  GI50: 2.32 µM
  TGI: > 50 µM
